Source: patent US20230053649A1 (Cedilla Therapeutics, Inc., priority 2021, published 2023)

Columns and labels:
[1] = system: mesothelioma cell line NCI-H226; assay: 72H TEAD Proliferation Assay (Cell Titer-Glo 2.0); format: cell-based; settings: Homo sapiens, CTG 2.0, cell line not given in Table 1 (NCI-H226 TEAD-responsive, NCI-H28 non-responsive counter-screen)
Experimental: 72H TEAD Proliferation Assay.
The effect of TEAD inhibition on cell proliferation was assayed using Cell Titer Glo (CTG) 2.0 to measure response in mesothelioma cell lines NCI-H226 (ATCC, #CRL-5826) and NCI-H28 (ATCC, #CRL-5820).
The 72H TEAD Proliferation assay utilizes Cell Titer-Glo 2.0 (Promega, #G9243) to measure the proliferation of cells in the presence or absence of compound. Cell Titer-Glo 2.0 determines the amount of viable cells by quantifying ATP (an indication of metabolically active cells). It utilizes the conversion of Luciferin to Oxyluciferin and a luminescent signal with the use of ATP to report the quantity of viable cells in culture. Within cells that are continually growing, ATP is being synthesized to meet their metabolic demands, meanwhile the opposite is true for cells that are dying or slowing down their proliferation and either no longer using ATP or are using less, respectively. The NF2-deficient NCI-H226 has been genetically validated as a cell line that is sensitive to TEAD inhibition. The NF2-wild type NCI-H28 has been genetically validated as a cell line that is not sensitive to TEAD inhibition and grows independently of TEAD activity.
Compounds were screened against the responsive NCI-H226 cell line to assess the compounds' ability to inhibit TEAD and cell growth. Compounds were also screened against the non-responsive NCI-H28 cell line to ascertain whether the inhibition of cell growth was due to inhibition of the target TEAD or whether the inhibition was due to off-target cytotoxicity.
Both NCI-H226 and NCI-H28 cells were grown at 37° C. with 5% CO2 using Growth Medium 1.
Anti-proliferative effect of compounds that inhibits TEAD activity measured by CTG
1) Assay ready plates (ARPs) were prepared by Echo acoustic liquid handler. For each compound, duplicate of 10-point half-log dilution series were dispensed in a 384-well microplate (Corning 3571).
3) Before use, ARPs were allowed to warm up to room temperature for 30 min.
4) ARPs were spun for 5 minutes at 1500RPM before removing the plate seals.
5) NCI-H226 or NCI-H28 cells were harvested from culture in Assay Medium 1 and the multidrop Combi reagent dispenser was used to seed cells at 500 cells per 50ul in each well of the ARPs and one Corning 3571 plate without compounds for Time 0 (TO) readout.
6) The TO plate was incubated for 2 hours at 37° C. with 5% CO2 to allow cells to settle, then the CTG Assay was performed.
7) All ARPs were incubated for 72 hours at 37° C. with 5% CO2, then the CTG Assay was performed for Time 72H (T72) readout.
8) CTG Assay: Bravo liquid handler (Agilent) was used to add 25ul of CTG 2.0 to all columns of the plate except for Column 24, which was used to subtract out the background. After CTG addition, plates were placed on shaker at 800RPM for 15 minutes at room temperature and kept in the dark. Luminescence was measured using EnVision multilabel plate reader with ultra-sensitive detection module.
9) Data Analysis: First background luminescence (no CTG wells) was subtracted from luminescence reading of all wells, then TO luminescence was subtracted from T72 luminescence. To compare anti-proliferative effect of compounds, GI50 was obtained by fitting dose response curves with nonlinear regression curve fit.

[2] = target: TEAD1 protein (YAP Binding Domain) (Homo sapiens, UniProt P28347); assay: biochemical
Chain of TEAD1 protein (YAP Binding Domain) (P28347 167-426 limits assumed): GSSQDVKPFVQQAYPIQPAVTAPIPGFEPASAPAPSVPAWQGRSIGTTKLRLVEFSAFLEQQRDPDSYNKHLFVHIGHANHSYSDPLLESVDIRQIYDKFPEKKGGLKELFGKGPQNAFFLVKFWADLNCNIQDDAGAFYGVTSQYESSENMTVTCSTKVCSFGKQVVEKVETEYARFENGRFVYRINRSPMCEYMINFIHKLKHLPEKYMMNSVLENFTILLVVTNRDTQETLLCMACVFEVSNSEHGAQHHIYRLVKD
Experimental: Compound Displacement Assay.
A TEAD1 lipid pocket displacement assay was carried out according to the following protocol. Purified His-tagged TEAD1 protein (YAP Binding Domain) was pre-mixed with a Cy5-probe (Cy5-conjugated to a small molecule that binds in the TEAD1 lipid pocket) and Terbium-labeled anti-His antibody (Cisbio Cat 61HI2TLB). The binding of the Cy5-probe to anti-His-Tb/His-tag TEAD1 complex yielded a TR-FRET signal. […] After 60 minutes incubation at room temperature of compounds with the His-TEAD1/anti-His-Tb/Cy5-probe complex, the plate was read on a plate reader (BMG ClarioStar Cat 430-1300) using TR-FRET mode with wavelengths of 665 nm/620 nm. The potency of compounds as TEAD1 lipid pocket binders was determined by IC50 value generated using a non-linear 4 parameter curve fit.

**Q.** With `COc1cc(N2CCC(C(F)F)CC2)c2ncc(C(=O)N[C@H](C)CO)cc2c1` [Compound I-7, (R)-8-(4-(difluoromethyl)piperidin-1-yl)-N-(1-hydroxypropan-2-yl)-6-methoxyquinoline-3-carboxamide] as the compound, how does the GI50 [1] read?
**A.** Its GI50 is 1000 to 5000 nM.

**Q.** What about the IC50 [2] of the same compound?
**A.** The IC50 was 150 to 300 nM.

**Q.** With `COc1cc(-c2ccc(Oc3ccccc3)cc2)c2ncc(C(=O)N[C@H](C)CO)cc2c1` [Compound I-19, (R)-N-(1-hydroxypropan-2-yl)-6-methoxy-8-(4-phenoxyphenyl)quinoline-3-carboxamide] as the compound, how does the GI50 [1] read?
**A.** Its GI50 is greater than 5000 nM.

**Q.** And the IC50 [2]?
**A.** The IC50 was 150 to 300 nM.

**Q.** Which GI50 [1] does the source give for `COC[C@H](C)NC(=O)c1cnc2c(N3CCC(C(F)(F)F)CC3)cccc2c1` [Compound I-61, (S)-N-(1-methoxypropan-2-yl)-8-(4-(trifluoromethyl)piperidin-1-yl)quinoline-3-carboxamide] here?
**A.** The GI50 was 500 to 1000 nM.

**Q.** What about the IC50 [2] of the same compound?
**A.** Its IC50 is 150 to 300 nM.

**Q.** For `COc1cc(-c2ccc(OC(F)(F)F)cc2)c2ncc(C(=O)N[C@H](C)CO)cc2c1` [Compound I-15, (R)-N-(1-hydroxypropan-2-yl)-6-methoxy-8-(4-(trifluoromethoxy)phenyl)quinoline-3-carboxamide], which GI50 [1] is on record?
**A.** The GI50 was no more than 500 nM.

**Q.** What about the IC50 [2] of the same compound?
**A.** The IC50 was less than 150 nM.

**Q.** With `CC(CO)NC(=O)c1ccc2c(OCC3CCC(F)(F)CC3)cccc2c1` (stereo not drawn) [Compound I-22, 5-((4,4-Difluorocyclohexyl)methoxy)-N-(1-hydroxypropan-2-yl)-2-naphthamide] as the compound, how does the GI50 [1] read?
**A.** Its GI50 is no more than 500 nM.

**Q.** And the IC50 [2]?
**A.** Its IC50 is 150 to 300 nM.

**Q.** How did the GI50 [1] turn out when `C[C@H](CO)NC(=O)c1ccc2c(N3CCC(C(F)(F)F)CC3)nc(C(F)(F)F)cc2c1` [Compound I-52, (R)-N-(1-hydroxypropan-2-yl)-3-(trifluoromethyl)-1-(4-(trifluoromethyl)piperidin-1-yl)isoquinoline-6-carboxamide] was run?
**A.** The GI50 was no more than 500 nM.

**Q.** And the IC50 [2]?
**A.** Its IC50 is less than 150 nM.

**Q.** Which GI50 [1] does the source give for `CC[C@H](CO)NC(=O)c1ccc2c(-c3ccc(C(F)(F)F)cc3)nc(OC)cc2c1` [I″-53, (R)-N-(1-hydroxybutan-2-yl)-3-methoxy-1-(4-(trifluoromethyl)phenyl)isoquinoline-6-carboxamide] here?
**A.** The GI50 was no more than 500 nM.

**Q.** And the IC50 [2]?
**A.** The IC50 was less than 150 nM.

**Q.** With `CC[C@H](CO)NC(=O)c1cnc2c(N3CCC(C(F)(F)F)CC3)cc(OC)cc2c1` [Compound I-13, (R)-N-(1-hydroxybutan-2-yl)-6-methoxy-8-(4-(trifluoromethyl)piperidin-1-yl)quinoline-3-carboxamide] as the compound, how does the GI50 [1] read?
**A.** Its GI50 is no more than 500 nM.

**Q.** What about the IC50 [2] of the same compound?
**A.** The IC50 was less than 150 nM.

**Q.** Which results are given for `COc1cc(N2CCC(C(C)(C)C)CC2)c2ncc(C(=O)N[C@H](C)CO)cc2c1` [Compound I-2, (R)-8-(4-(tert-butyl)piperidin-1-yl)-N-(1-hydroxypropan-2-yl)-6-methoxyquinoline-3-carboxamide]?
**A.** GI50 [1]: ≤ 500 nM; IC50 [2]: 300 to 500 nM

**Q.** What does the source list for `COC[C@H](C)NC(=O)c1cnc2c(N3CCC(CC(F)(F)F)CC3)cc(OC)cc2c1` [Compound I-5, (S)-6-methoxy-N-(1-methoxypropan-2-yl)-8-(4-(2,2,2-trifluoroethyl)piperidin-1-yl)quinoline-3-carboxamide]?
**A.** GI50 [1]: 1000 to 5000 nM; IC50 [2]: < 150 nM

**Q.** `COc1cc(-c2ccc(OC3CC3)cc2)c2ncc(C(=O)N[C@H](C)CO)cc2c1` [Compound I-20, (R)-8-(4-cyclopropoxyphenyl)-N-(1-hydroxypropan-2-yl)-6-methoxyquinoline-3-carboxamide] was tested. Which GI50 [1] did it give?
**A.** The GI50 was no more than 500 nM.

**Q.** And the IC50 [2]?
**A.** Its IC50 is less than 150 nM.

**Q.** `COc1cc(N2CCC(C(F)(F)F)CC2)c2ncc(C(=O)N[C@@H](C)COC(F)(F)F)cc2c1` [Compound I-12, (S)-6-methoxy-N-(1-(trifluoromethoxy)propan-2-yl)-8-(4-(trifluoromethyl)piperidin-1-yl)quinoline-3-carboxamide] was tested. Which GI50 [1] did it give?
**A.** Its GI50 is no more than 500 nM.

**Q.** And the IC50 [2]?
**A.** Its IC50 is greater than 500 nM.

**Q.** Which results are given for `C[C@H](NC(=O)c1cnc2c(C#CC(C)(C)C)cccc2c1)c1ccccn1` [Compound 31, (S)-8-(3,3-dimethylbut-1-yn-1-yl)-N-(1-(pyridin-2-yl)ethyl)quinoline-3-carboxamide]?
**A.** GI50 [1]: 1000 to 5000 nM; IC50 [2]: > 500 nM

**Q.** `CC[C@H](CO)NC(=O)c1ccc2c(N3CCC(C(F)(F)F)CC3)nc(OC)cc2c1` [Compound I-65, (R)-N-(1-hydroxybutan-2-yl)-3-methoxy-1-(4-(trifluoromethyl)piperidin-1-yl)isoquinoline-6-carboxamide] was tested. Which GI50 [1] did it give?
**A.** Its GI50 is no more than 500 nM.

**Q.** And the IC50 [2]?
**A.** Its IC50 is less than 150 nM.

**Q.** Which results are given for `COc1cc(N2CCC3(CC2)CC3)c2ncc(C(=O)N[C@H](C)CO)cc2c1` [Compound I-3, (R)-N-(1-hydroxypropan-2-yl)-6-methoxy-8-(6-azaspiro[2.5]octan-6-yl)quinoline-3-carboxamide]?
**A.** GI50 [1]: 500 to 1000 nM; IC50 [2]: 150 to 300 nM

**Q.** For `COC[C@H](C)NC(=O)c1cnc2c(N3CCC(C(F)(F)F)CC3)cc(OC3CC3)cc2c1` [Compound I-26, (S)-6-cyclopropoxy-N-(1-methoxypropan-2-yl)-8-(4-(trifluoromethyl)piperidin-1-yl)quinoline-3-carboxamide], which GI50 [1] is on record?
**A.** The GI50 was 500 to 1000 nM.

**Q.** What about the IC50 [2] of the same compound?
**A.** The IC50 was 300 to 500 nM.

**Q.** How did the GI50 [1] turn out when `COC[C@H](C)NC(=O)c1cnc2c(N3CCC(C(F)(F)F)CC3)cc(OC)cc2c1` [Compound I-9, (S)-6-methoxy-N-(1-methoxypropan-2-yl)-8-(4-(trifluoromethyl)piperidin-1-yl)quinoline-3-carboxamide] was run?
**A.** The GI50 was no more than 500 nM.

**Q.** What about the IC50 [2] of the same compound?
**A.** The IC50 was 150 to 300 nM.

**Q.** What does the source list for `COc1cc(N2CCN(CC(F)(F)F)CC2)c2ncc(C(=O)N[C@H](C)CO)cc2c1` [Compound I-8, (R)-N-(1-hydroxypropan-2-yl)-6-methoxy-8-(4-(2,2,2-trifluoroethyl)piperazin-1-yl)quinoline-3-carboxamide]?
**A.** GI50 [1]: > 5000 nM; IC50 [2]: > 500 nM

**Q.** Which GI50 [1] does the source give for `C#Cc1cccc2cc(C(=O)N[C@@H](C)c3ccccn3)cnc12` [Compound 30, (S)-8-ethynyl-N-(1-(pyridin-2-yl)ethyl)quinoline-3-carboxamide] here?
**A.** The GI50 was greater than 5000 nM.

**Q.** And the IC50 [2]?
**A.** The IC50 was greater than 500 nM.

**Q.** How did the GI50 [1] turn out when `COc1cc2cc(C(=O)N[C@@H](C)c3ccccn3)ccc2c(N2CCC(C(F)(F)F)CC2)n1` [Compound I-64, (S)-3-methoxy-N-(1-(pyridin-2-yl)ethyl)-1-(4-(trifluoromethyl)piperidin-1-yl)isoquinoline-6-carboxamide] was run?
**A.** Its GI50 is no more than 500 nM.

**Q.** What about the IC50 [2] of the same compound?
**A.** Its IC50 is less than 150 nM.

**Q.** `C[C@H](CO)NC(=O)c1cnc2c(N3CCC4(CC3)CC4)cc(OC(F)(F)F)cc2c1` [Compound I-24, (R)-N-(1-hydroxypropan-2-yl)-8-(6-azaspiro[2.5]octan-6-yl)-6-(trifluoromethoxy)quinoline-3-carboxamide] was tested. Which GI50 [1] did it give?
**A.** The GI50 was greater than 5000 nM.

**Q.** And the IC50 [2]?
**A.** The IC50 was greater than 500 nM.

**Q.** `COc1cc(-c2ccc(OC(F)(F)F)cc2F)c2ncc(C(=O)N[C@H](C)CO)cc2c1` [Compound I-21, (R)-8-(2-fluoro-4-(trifluoromethoxy)phenyl)-N-(1-hydroxypropan-2-yl)-6-methoxyquinoline-3-carboxamide] was tested. Which GI50 [1] did it give?
**A.** The GI50 was no more than 500 nM.

**Q.** How did the GI50 [1] turn out when `C[C@H](CO)NC(=O)c1ccc2c(-c3ccc(C(F)(F)F)cc3)[nH]c(=O)cc2c1` [I″-56] was run?
**A.** Its GI50 is greater than 5000 nM.

**Q.** What about the IC50 [2] of the same compound?
**A.** The IC50 was greater than 500 nM.

**Q.** For `CC(NC(=O)c1ccc2c(OCC3CCC(F)(F)CC3)cccc2c1)c1ccccn1` (stereo not drawn) [Compound I-45, 5-((4,4-difluorocyclohexyl)methoxy)-N-(1-(pyridin-2-yl)ethyl)-2-naphthamide], which GI50 [1] is on record?
**A.** Its GI50 is 1000 to 5000 nM.

**Q.** What about the IC50 [2] of the same compound?
**A.** Its IC50 is less than 150 nM.

**Q.** Which GI50 [1] does the source give for `C[C@H](NC(=O)c1ccc2c(N3CCC(C(F)(F)F)CC3)cccc2c1)c1ccccn1` [Compound I-58, (S)-N-(1-(pyridin-2-yl)ethyl)-5-(4-(trifluoromethyl)piperidin-1-yl)-2-naphthamide] here?
**A.** The GI50 was no more than 500 nM.

**Q.** What about the IC50 [2] of the same compound?
**A.** The IC50 was less than 150 nM.

**Q.** `C[C@H](CO)NC(=O)c1cnc2c(N3CCC4(CC3)CC4)cc(OC(F)F)cc2c1` [Compound I-27, (R)-6-(difluoromethoxy)-N-(1-hydroxypropan-2-yl)-8-(6-azaspiro[2.5]octan-6-yl)quinoline-3-carboxamide] was tested. Which GI50 [1] did it give?
**A.** Its GI50 is 1000 to 5000 nM.

**Q.** For `CC(CO)NC(=O)c1ccc2c(OCc3ccc(C(F)(F)F)cc3)cccc2c1` (stereo not drawn) [Compound I-44, N-(1-hydroxypropan-2-yl)-5-((4-(trifluoromethyl)benzyl)oxy)-2-naphthamide], which GI50 [1] is on record?
**A.** The GI50 was greater than 5000 nM.
